This assay has as its system MCF10. In words: Cytotoxicity against human MCF10 cells assessed as reduction in cell viability after 3 hrs by MTT assay. The conditions noted are these: MCF10, 3 h. Background: Tetrazolium dyes change colour on reduction, which living cells bring about.

As a reminder, the IC50 is the concentration needed to halve the response being measured.

On to `CC[C@@]1(O)C(=O)OCc2c1cc1n(c2=O)Cc2cc3ccccc3nc2-1` [CAMPTOTHECIN], for which the half-maximal inhibitory concentration (IC50) stood at 24.8 µM.

The values are drawn from ChEMBL document CHEMBL4819122, “Novel 4-(piperazin-1-yl)quinolin-2(1H)-one bearing thiazoles with antiproliferative activity through VEGFR-2-TK inhibition” (Bioorg Med Chem, 2021).
